Measurements published in ChEMBL document CHEMBL1201862, “PubChem BioAssay data set” (2004).
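Step 1: Grow cells in 96-well plates. Step 2: Expose to compound for 48 hours at 5 concentrations. Step 3: Interpolate endpoints linearly; if unreached, use highest concentration. GI50 is the concentration that inhibits growth by half.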 The source made the active and inactive calls. No stated cut-off is given here; in the data, active = GI50 up to about 1.1 µM and inactive = higher.

Key:
Test in all cases: inhibition of tumour cell growth, NCI panel, 48 h
[1] = test system: A498
[2] = test system: A549
[3] = test system: CAKI-1
[4] = test system: HCT-15
[5] = test system: HL-60
[6] = test system: HOP-92
[7] = test system: IGROV-1
[8] = test system: KM12
[9] = test system: MDA-MB-231
[10] = test system: MDA-MB-435
[11] = test system: MOLT-4
[12] = test system: NCI/ADR-RES
[13] = test system: OVCAR-3
[14] = test system: SF-268
[15] = test system: SF-539
[16] = test system: SK-MEL-28
[17] = test system: SN12C
[18] = test system: SW-620
[19] = test system: U-251
[20] = test system: UACC-62

COc1ccc2c(c1)c1ccc3c(c1n2C)C(=O)C=CC3=O
GI50 [1]: 25.4 µM (inactive) | GI50 [2]: 29 µM (inactive) | GI50 [3]: 8.26 µM (inactive) | GI50 [4]: 4.72 µM | GI50 [5]: 0.904 µM (active) | GI50 [6]: 4.95 µM (inactive) | GI50 [7]: 12.7 µM (inactive) | GI50 [8]: 18 µM (inactive) | GI50 [9]: 5.18 µM (inactive) | GI50 [10]: 7.96 µM (inactive) | GI50 [11]: 0.834 µM (active) | GI50 [12]: 5.79 µM (inactive) | GI50 [13]: 8.39 µM (inactive) | GI50 [14]: 15 µM (inactive) | GI50 [15]: 13 µM (inactive) | GI50 [16]: 9.55 µM (inactive) | GI50 [17]: 8.38 µM (inactive) | GI50 [18]: 4.1 µM (inactive) | GI50 [19]: 12.5 µM (inactive) | GI50 [20]: 12.8 µM (inactive)

COc1cc2c(cc1OC)C13CCN4C=C5CCOC6CC(=O)N2C1C6C5CC43 (stereo not given)
GI50 [1]: > 100 µM (inactive) | GI50 [2]: > 100 µM (inactive) | GI50 [3]: > 100 µM (inactive) | GI50 [4]: > 100 µM | GI50 [5]: > 100 µM (inactive) | GI50 [6]: > 100 µM (inactive) | GI50 [7]: > 100 µM (inactive) | GI50 [8]: > 100 µM (inactive) | GI50 [9]: > 100 µM (inactive) | GI50 [10]: > 100 µM (inactive) | GI50 [11]: > 100 µM (inactive) | GI50 [12]: > 100 µM (inactive) | GI50 [13]: > 100 µM (inactive) | GI50 [14]: > 100 µM (inactive) | GI50 [15]: > 100 µM (inactive) | GI50 [16]: > 100 µM (inactive) | GI50 [17]: > 100 µM (inactive) | GI50 [18]: > 100 µM (inactive) | GI50 [19]: > 100 µM (inactive) | GI50 [20]: > 100 µM (inactive)

CCCCCCCCC[C@@H]1C[C@@H]2CCC3C(C(=O)OCCCCNC(=O)OCc4ccccc4)=C(C)N=C(N1)N32 (stereo not given in full)
GI50 [1]: 4.66 µM (inactive) | GI50 [2]: 4.57 µM (inactive) | GI50 [3]: 3.62 µM (inactive) | GI50 [4]: 2.81 µM | GI50 [5]: 1.98 µM (inactive) | GI50 [6]: 2.78 µM (inactive) | GI50 [7]: 2.43 µM (inactive) | GI50 [8]: 3.13 µM (inactive) | GI50 [9]: 2.28 µM (inactive) | GI50 [10]: 2.78 µM (inactive) | GI50 [11]: 2.59 µM (inactive) | GI50 [12]: 2.62 µM (inactive) | GI50 [13]: 4.04 µM (inactive) | GI50 [14]: 2.85 µM (inactive) | GI50 [15]: 3.86 µM (inactive) | GI50 [16]: 3.61 µM (inactive) | GI50 [17]: 3.13 µM (inactive) | GI50 [18]: 3.45 µM (inactive) | GI50 [19]: 2.9 µM (inactive) | GI50 [20]: 3.44 µM (inactive)

O=S(=O)(O)c1c(Cl)c(Cl)c(O)c2ncccc12
GI50 [1]: 1 µM (active) | GI50 [2]: 12.4 µM (inactive) | GI50 [3]: 18.6 µM (inactive) | GI50 [4]: 5.33 µM | GI50 [5]: 1.87 µM (inactive) | GI50 [6]: 18.8 µM (inactive) | GI50 [7]: 4.2 µM (inactive) | GI50 [8]: 10.8 µM (inactive) | GI50 [9]: 27.7 µM (inactive) | GI50 [10]: 9.4 µM (inactive) | GI50 [11]: 3.33 µM (inactive) | GI50 [12]: 5.05 µM (inactive) | GI50 [13]: 10.7 µM (inactive) | GI50 [14]: 3.79 µM (inactive) | GI50 [15]: 16 µM (inactive) | GI50 [16]: 13 µM (inactive) | GI50 [17]: 14 µM (inactive) | GI50 [18]: 10 µM (inactive) | GI50 [19]: 10.8 µM (inactive) | GI50 [20]: 8.34 µM (inactive)

CCOC(=O)c1sc2nc(SC)nc3c2c1NCN3c1ccc2c(c1)OCCCO2
GI50 [1]: 7.98 µM (inactive) | GI50 [2]: 9.48 µM (inactive) | GI50 [3]: > 100 µM (inactive) | GI50 [4]: > 100 µM | GI50 [5]: > 100 µM (inactive) | GI50 [6]: 79.3 µM (inactive) | GI50 [7]: > 100 µM (inactive) | GI50 [8]: 4.18 µM (inactive) | GI50 [9]: 24.3 µM (inactive) | GI50 [10]: > 100 µM (inactive) | GI50 [11]: > 100 µM (inactive) | GI50 [12]: 22.1 µM (inactive) | GI50 [13]: 18.6 µM (inactive) | GI50 [14]: 13.3 µM (inactive) | GI50 [15]: 13.9 µM (inactive) | GI50 [16]: 56.1 µM (inactive) | GI50 [17]: 49.7 µM (inactive) | GI50 [18]: 8.71 µM (inactive) | GI50 [19]: 7.57 µM (inactive) | GI50 [20]: > 100 µM (inactive)

COc1ccc2c(c1)CCc1cc(C(N)=O)c3nnnn3c1-2
GI50 [1]: 18.2 µM (inactive) | GI50 [2]: > 100 µM (inactive) | GI50 [3]: 36.7 µM (inactive) | GI50 [4]: > 100 µM | GI50 [5]: > 100 µM (inactive) | GI50 [6]: 30.9 µM (inactive) | GI50 [7]: 39.3 µM (inactive) | GI50 [8]: > 100 µM (inactive) | GI50 [9]: > 49.2 µM (inactive) | GI50 [10]: > 100 µM (inactive) | GI50 [11]: > 38.8 µM (inactive) | GI50 [12]: > 84.5 µM (inactive) | GI50 [13]: > 54.3 µM (inactive) | GI50 [14]: 2.98 µM (inactive) | GI50 [15]: 78.7 µM (inactive) | GI50 [16]: > 100 µM (inactive) | GI50 [17]: 99.8 µM (inactive) | GI50 [18]: > 100 µM (inactive) | GI50 [19]: 23.6 µM (inactive) | GI50 [20]: 1.67 µM (inactive)

O=c1cc(N2CCCC2)[nH]c(=O)n1-c1ccc(F)cc1
GI50 [1]: > 100 µM (inactive) | GI50 [2]: > 100 µM (inactive) | GI50 [3]: > 100 µM (inactive) | GI50 [4]: > 100 µM | GI50 [5]: > 100 µM (inactive) | GI50 [6]: > 100 µM (inactive) | GI50 [7]: > 100 µM (inactive) | GI50 [8]: > 100 µM (inactive) | GI50 [9]: > 100 µM (inactive) | GI50 [10]: > 100 µM (inactive) | GI50 [11]: > 100 µM (inactive) | GI50 [12]: > 100 µM (inactive) | GI50 [13]: > 100 µM (inactive) | GI50 [14]: > 100 µM (inactive) | GI50 [15]: > 100 µM (inactive) | GI50 [16]: > 100 µM (inactive) | GI50 [17]: > 100 µM (inactive) | GI50 [18]: > 100 µM (inactive) | GI50 [19]: > 100 µM (inactive) | GI50 [20]: > 100 µM (inactive)

CN(CCCN(C)CCc1ccc(Cl)c(Cl)c1)CCCN1CCCC1
GI50 [1]: 1.76 µM (inactive) | GI50 [2]: 2.97 µM (inactive) | GI50 [3]: 2.37 µM (inactive) | GI50 [4]: 2.31 µM | GI50 [5]: 1.62 µM (inactive) | GI50 [6]: 2.13 µM (inactive) | GI50 [7]: 3.11 µM (inactive) | GI50 [8]: 2.61 µM (inactive) | GI50 [9]: 1.33 µM (inactive) | GI50 [10]: 0.531 µM (active) | GI50 [11]: 0.908 µM (active) | GI50 [12]: 6.08 µM (inactive) | GI50 [13]: 3.72 µM (inactive) | GI50 [14]: 2.12 µM (inactive) | GI50 [15]: 2.88 µM (inactive) | GI50 [16]: 1.5 µM (inactive) | GI50 [17]: 3.12 µM (inactive) | GI50 [18]: 2.26 µM (inactive) | GI50 [19]: 1.92 µM (inactive) | GI50 [20]: 1.93 µM (inactive)

CC(=O)OCC1C(C(C)OC(C)=O)CCC2C1CCC1(C)C(OC(C)=O)CCC21 (stereo not given)
GI50 [1]: 19.7 µM (inactive) | GI50 [2]: 18.9 µM (inactive) | GI50 [3]: 37.4 µM (inactive) | GI50 [4]: 19.7 µM | GI50 [5]: 17.1 µM (inactive) | GI50 [6]: 17.9 µM (inactive) | GI50 [7]: 20 µM (inactive) | GI50 [8]: 15.7 µM (inactive) | GI50 [9]: 15.6 µM (inactive) | GI50 [10]: 18.7 µM (inactive) | GI50 [11]: 16.6 µM (inactive) | GI50 [12]: 17 µM (inactive) | GI50 [13]: 20.5 µM (inactive) | GI50 [14]: 23.9 µM (inactive) | GI50 [15]: 17.7 µM (inactive) | GI50 [16]: 15.7 µM (inactive) | GI50 [17]: 18 µM (inactive) | GI50 [18]: 17.9 µM (inactive) | GI50 [19]: 16.6 µM (inactive) | GI50 [20]: 12.9 µM (inactive)

CCC(/C=C/C1OC(=O)C=CC1C)=C\C(C)C/C=C/C(C)=C/C(C)C(=O)C(C)C(O)C(C)C/C(C)=C/C(=O)O (stereo not given)
GI50 [1]: 2.08 µM (inactive) | GI50 [2]: 0.946 µM (active) | GI50 [3]: 0.807 µM (active) | GI50 [4]: 1.28 µM | GI50 [5]: 0.855 µM (active) | GI50 [6]: 4.98e-06 µM (active) | GI50 [7]: 4.07 µM (inactive) | GI50 [8]: 4.54 µM (inactive) | GI50 [9]: 3.4e-06 µM (active) | GI50 [10]: 2.33e-06 µM (active) | GI50 [11]: 1.06 µM (active) | GI50 [12]: 0.000115 µM (active) | GI50 [13]: 0.649 µM (active) | GI50 [14]: 4.07e-06 µM (active) | GI50 [15]: 1.04 µM (active) | GI50 [16]: 2.65 µM (inactive) | GI50 [17]: 2.72 µM (inactive) | GI50 [18]: 1.11 µM (active) | GI50 [19]: 2.26 µM (inactive) | GI50 [20]: 1.56 µM (inactive)
